From US11219588B2, “Use of polyamines in compositions and methods for inducing or promoting skin darkening and regulating melanogenesis” (Agency for Science, Technology and Research, priority 2016, dated 2022)
Like-named read-outs stand apart in the source and are kept apart here.

What was measured:
NHEM-aLP cells [1] = test: Putrescine/spermidine treatment of melanocytes and melanin quantification; assay type: cell-based, human
Description: 2×10^5 cells were dissolved in 1 M sodium hydroxide solution and incubated at 80° C. for 2 hours. The absorbance of the cell lysates was measured at 405 nm in a microplate well reader.
2×10^5 cells were dissolved in 1M sodium hydroxide solution and incubated at 80° C. for 2 hours. The absorbance of the cell lysates was measured at 405 nm in a microplate well reader.

[2] = test system: reconstructed epidermis (keratinocytes, melanocytes and fibroblasts); details: 2 mM Putrescine for 14 days, preliminary experiment
Description: The reconstructed epidermis (Denova Sciences) has normal human keratinocytes three dimensionally cultured at an air-liquid interface in a chemically defined medium, in the presence of melanocytes and fibroblasts. They were treated with 2 mM Putrescine for 14 days.

[3] = test system: human abdominal skin biopsies
From the text: The skin was them imaged, followed by sectioning and staining with Fontana Mason stain which stains for melanin.

[4] = test system: primary human melanocytes; details: 3 and 6 days after incubation with putrescine
From the text: FIG. 8 is a dot plot showing the viability of cells untreated, treated for 3 days, or treated for 6 days with putrescine.

[5] = test system: melanogenesis-related genes (TYR, TYRP1, DCT and PMEL) in NHEM-aLP cells; details: 2 mM putrescine for 6 days, relative to RPLP0
Description: Human epidermal melanocytes from adult donor (Hema-LP) were purchased from Life Technologies. The cells were grown in 254 media with HMGS-2 and calcium chloride supplements in a humidified incubator containing 5% CO2 according to the manufacturer's instruction. For putrescine treatments, the cells were plated at an approximate density of 20,000/cm^2 the day before. Fresh media was added along with the respective drugs reconstituted in water (putrescine was purchased from Sigma Aldrich) to the cell cultures on day 0 and day 3 of experiment.
Total RNA was extracted from the cells using RNAeasy (Qiagen) according to manufacturer's instructions. 500 ng of total RNA was converted to complimentary DNA using RevertAid First Strand cDNA synthesis kit (Thermo Scientifc). It was diluted 1:25, and 4 ul of the diluted mixture was used as a template with specific primers using Luminaris Colour HiGreen Hi ROX master mix (Thermo Fisher Scientific) for qRT-PCR on an ABI PRISM 7900 sequence detection system. […] Expression levels detected by qPCR were normalized with ribosomal protein LP0 or L13A.

[6] = test system: melanogenesis related proteins (TYR, TYRP1 and DCT) in NHEM-aLP cells; details: putrescine treated vs control, western blotting
Description: Human epidermal melanocytes from adult donor (Hema-LP) were purchased from Life Technologies. The cells were grown in 254 media with HMGS-2 and calcium chloride supplements in a humidified incubator containing 5% CO2 according to the manufacturer's instruction. For putrescine treatments, the cells were plated at an approximate density of 20,000/cm^2 the day before. Fresh media was added along with the respective drugs reconstituted in water (putrescine was purchased from Sigma Aldrich) to the cell cultures on day 0 and day 3 of experiment. The cells were lysed in RIPA buffer, and concentration of the cell lysate was determined by Pierce BCA Protein Assay Kit (Thermo Scientific). […] The membrane was blocked with 5% skim milk in TBST (0.1% Tween-20 (Sigma-Aldrich) in 1×TBS (0.1 M NaCl, 0.1 M Tris pH 7.4 in ddH2O; purchased from Biopolis Shared Facility) and incubated overnight at 4° C. with respective primary antibodies against TYR (sc-7833), TYRP1 (sc-10443), DCT (sc-10451) from Santa Cruz Biotechnology Inc and RPLP0 (AB126480) from Abcam at a dilution of 1:1000 in blocking buffer. The samples were then incubated with horseradish peroxidase-labeled anti-rabbit, or anti-goat IgG (Santa Cruz Biotechnology, Inc) at a dilution 1:5000 for 1 hour at 4° C. and immunoreactive bands were detected with enhanced chemiluminescent substrate (Thermo Fisher Scientific).

[7] = test system: primary human melanocytes; details: long term culture with putrescine
[8] = test system: cultured human melanocytes; details: melanocytes cultured with putrescine
Description: To confirm that cultured human melanocytes do take up putrescine, the polycationic aliphatic amine content was measured in melanocytes cultured with and without putrescine.

[9] = test system: ATP13A3, SLC11A8 and Caveolin-1 in melanocytes; details: on addition of putrescine
NHEM-aLP cells [10] = test: MTS proliferation and cytotoxicity colorimetric assay
[11] = test system: co-cultured human keratinocytes and melanocytes; test: UV induced pigmentation in co-culture of melanocytes and keratinocytes; assay type: cell-based; details: co-culture under UV induction
From the text: On UV induction, keratinocytes signal to melanocytes to increase melanogenesis. This can be modeled through co-culture of human melanocytes and keratinocytes under UV induction.

Human melanocytes [12] = test: MTT cell viability assay, melanocytes; details: increasing concentrations
Description: (§1) Human keratinocytes and melanocytes were cultured in the presence of increasing concentrations of a polycationic aliphatic amine transport inhibitor, trimer44NMe, or DFMO, and the cell viability was determined by an MTT assay.

Human keratinocytes = test: MTT cell viability assay, keratinocytes; details: increasing concentrations (trimer44NMe up to 5 μM)
Description: as §1

[13] = test system: human primary melanocytes; test: Melanin content of melanocytes, putrescine with and without transport inhibitor; assay type: cell-based; details: putrescine plus trimer44NMe vs putrescine alone
Description: To confirm that import of putrescine is required for the pigmentation phenotype observed in melanocytes, human primary melanocytes were cultured with putrescine with and without a polycationic aliphatic amine transport inhibitor (trimer44NMe).

Human melanocytes [14] = test system: Human melanocytes
Description: as §1

NCCCCN [putrescine, butane-1,4-diamine]
cell morphology / dendrites (NHEM-aLP cells [1]; 2 mM putrescine, day 6): larger and flatter and displayed an increased number of dendrites
visual darkening of the melanocytes (NHEM-aLP cells [1]; 2 mM putrescine, every 3 days for 6 days): drastic darkening effect
increase in melanin content vs control (NHEM-aLP cells [1]; 2 mM putrescine, every 3 days for 6 days, NHEM-aLP cells): 1.5-2 fold
pigmentation levels compared to control [2]: increase in pigmentation levels
darkening of the skin ([3]; incubated ten days): promoted darkening of the skin
melanin stain within melanocytes and neighboring keratinocytes ([3]; ten days, Fontana Mason stain): increase in melanin stain
cell viability [4]: no decrease in viability
mRNA expression levels of TYR, TYRP1, DCT and PMEL [5]: significant increase
protein levels of TYR, TYRP1 and DCT [6]: increased drastically
melanin content on long term culture [7]: sustained increase in melanin content
intracellular levels of putrescine vs non-treated cells [8]: dramatically higher
intracellular levels of spermine [8]: decrease in the levels of spermine
protein level of Caveolin-1 [9]: decreases
protein levels of polyamine transporters ATP13A3 and SLC11A8 [9]: increase
maximum dose up to which NHEM-aLP can survive (NHEM-aLP cells [10]; 3 days treatment, MTS): 2 mM
effect on proliferation (NHEM-aLP cells [10]; doses between 0.5 mM and 2 mM, 3 days): mild proliferative effect

NCCCC(N)(C(=O)O)C(F)F (racemic) [DFMO, (RS)-2,5-diamino-2-(difluoromethyl)pentanoic acid]
UV induced pigmentation (melanin-containing keratinocytes) [11]: inhibits UV induced pigmentation
sensitivity of melanocyte viability (Human melanocytes [12]): comparatively insensitive
sensitivity of keratinocyte viability (Human keratinocytes): sensitive

CNCCCCNCCCCNCc1cc(CNCCCCNCCCCNC)cc(CNCCCCNCCCCNC)c1 [trimer44NMe]
effect on putrescine induced pigmentation (melanin content) [13]: blocked the ability of putrescine to promote pigmentation
sensitivity of melanocyte viability (Human melanocytes [14]): highly sensitive

NCCCCNCCCN [spermidine, N′-(3-aminopropyl)butane-1,4-diamine]
melanin content of the cells, dose dependence (NHEM-aLP cells [1]; 0.05 mM and 0.5 mM spermidine, every 3 days for 6 days): dose dependant increase
maximum fold change in melanin content (NHEM-aLP cells [1]; 0.5 mM spermidine, every 3 days for 6 days, NHEM-aLP cells): 1.5-2 fold
concentration for similar melanin increase relative to putrescine (2 mM) (NHEM-aLP cells [1]; spermidine 0.5 mM vs putrescine 2 mM): 4 times lower
